Patent US20230047816A1 (priority 2018, published 2023)
Entries after “also recorded” stand apart in the source; their conditions may differ.

What was measured:
[1] = system: Caenorhabditis elegans N2; test: C. elegans life span in 96 well microtiter plates; type: in vivo; conditions: strain N2
Excerpt: The test of AZ67 compound had been made according to protocol disclosed in Solis, G. M., Petrascheck, M. Measuring Caenorhabditis elegans

[2] = system: mouse primary cortical neurons; test: Mitochondrial ROS (MitoSox) upon excitotoxic stimuli; type: cell-based; conditions: NMDA and glutamate excitotoxic models; inhibitor 0.01 μM
Procedure: To directly test the ability of the PFKFB3 inhibitor, AZ67 and Compound 1, to protect against the damage caused by excitotoxic stimuli, mouse primary cortical neurons were subjected to a short-term exposure to NMDA or glutamate (100 μM for 10 minutes), a well-known excitotoxic stimuli (Almeida and Bolahos, 2001). For NMDAR activation, neurons at 8 days in vitro were incubated with 100 μM glutamate (plus 10 μM glycine) or 100 μM NMDA (plus 10 μM glycine) for 10 minutes. Neurons were then washed and further incubated in culture medium with the PFKFB3 inhibitors for 24 hours. A colorimetric NADP/NADPH assay kit (Abcam) was used. Cells were resuspended in 500 μl of NADP/NADPH extraction buffer, vortexed and centrifuged at 14,000 rpm for 5 minutes to remove insoluble material. The supernatant was used for NADPH +plus NADP+ measurement. NADPH was determined in 200 μl of the supernatant, after heatinged […] 60° C. for 30 minutes to decompose NADP+. Actual NADP and NADPH+ concentrations were calculated by extrapolating values to a NADPH standard curve (0-100 pmol/well).
Mitochondrial ROS was detected using the fluorescent probe MitoSox™ (Life Technologies). […] MitoSox™ fluorescence was assessed by flow cytometry and expressed in arbitrary units.

Cln7Aex2 mice = Cln7Aex2 mice in vivo (cortex pathology, hindlimb paralysis)
[3] = system: mouse cortical primary neurons; test: MG132-induced neuronal apoptosis (annexin V/7-AAD flow cytometry); type: cell-based; conditions: MG132 24 hours; inhibitor 0.01 μM
Procedure: (§1) Primary cultures of C57BL/6 mice cortical neurons were prepared from fetal animals of 14.5 days of gestation, seeded at 1.8·10^5 cells/cm^2 in plastic plates coated with poly-D-lysine (10 mg/ml) and incubated in Neurobasal (Life Technologies) supplemented with 2 mM glutamine, 5 mM of glucose, 0.25 mM pyruvate and 2% B27 supplement (Life Technologies). Cells were incubated at 37° C. in a humidified 5% CO2-containing atmosphere. At 72 hours after plating, medium was replaced using Neurobasal (Life Technologies) supplemented with 2 mM glutamine, 5 mM glucose, 0.25 mM pyruvate and 2% B27 supplement (Life Technologies) minus antioxidants (MAO; i.e., lacking vitamin E, vitamin E acetate, superoxide dismutase, catalase and glutathione). […] APC/C-conjugated annexin-V and 7-amino-actinomycin D (7-AAD) (Becton Dickinson Biosciences, BDB, San Jose, Calif., USA) were used to determine quantitatively the percentage of apoptotic neurons by flow cytometry. Cells were stained with annexin V-APC and 7-AAD, following the manufacturer's instructions, and were analysed on a FACScalibur™ flow cytometer (15 mW argon ion laser tuned at 488 nm; CellQuest software, Becton Dickinson Biosciences) using the CellQuest software (BDB). Both GFP+ and GFP− cells were analyzed separately, and the annexin V-APC-stained cells that were 7-AAD-negative were considered to be apoptotic.

primary neurons = test: NADPH/NADP ratio under excitotoxic conditions induced by glutamate; type: cell-based; conditions: 0.01 μM, FIG. 4A
[4] = system: mouse cortical primary neurons; test: β-amyloid-induced neuronal apoptosis (annexin V/7-AAD flow cytometry); type: cell-based; conditions: β-amyloid 24 hours
Procedure: as §1

[5] = system: iPSC-derived neural precursor cells (NPC) from CLN7 patients; test: Perinuclear mitochondria in iPSC-derived neural precursor cells from CLN7 patients; type: cell-based; conditions: FIG. 16
[6] = system: neurons from Cln7 knock out (KO) mice; test: In vitro model of Batten disease, glycolytic flux; type: cell-based, mouse; conditions: 10 nM, 24 hours
Procedure: Primary cultures of C57BL/6J WT and Cln7Δex2 mice cortical neurons were prepared from fetal animals of 14.5 days of gestation, seeded at 1.8·10^5 cells/cm2 in plastic plates coated with poly-D-lysine […] and incubated in Neurobasal (Life Technologies) supplemented with 2 mM glutamine, 5 mM of glucose, 0.25 mM pyruvate and 2% B27 supplement (Life Technologies). Cells were incubated at 37° C. in a humidified 5% CO2-containing atmosphere. At 72 hours after plating, medium was replaced using Neurobasal (Life Technologies) supplemented with 2 mM glutamine, 5 mM glucose, 0.25 mM pyruvate and 2% B27 supplement (Life Technologies) minus antioxidants (MAO; i.e., lacking vitamin E, vitamin E acetate, superoxide dismutase, catalase, and glutathione). Six days after the plating medium was replaced again. Cells were used at day 9.
Glycolytic flux was measured in 8 cm2 flasks of adherent cells at 60-70% confluence containing a central microcentrifuge tube with 1 ml H2O for 3H2O equilibration. […]. […] Glycolytic flux was measured by assaying the rate of 3H2O production from [3-3H]glucose by incubating cells with 5μ Ci D-[3-3H]glucose in KRPG buffer per flask for 120 min, as previously described [Vicente-Gutierrez, C. et al. Astrocytic mitochondrial ROS modulate brain metabolism and mouse behavior. […] The 3H2O was then measured by liquid scintillation counting (Tri-Carb 4810 TR, PerkinElmer). […]

[7] = Cln7Aex2 mice in vivo, FIGS. 15A-15C

Cc1noc(C)c1Cn1cc(C#N)c2cc(Oc3ccc(NC(=O)[C@@H]4CCCN4)cc3)ccc21 [AZ67, (2S)-N-[4-({3-cyano-1-[(3,5-dimethyl-1,2-oxazol-4-yl)methyl]-1H-indol-5-yl}oxy)phenyl]pyrrolidine-2-carboxamide]
% LS change ([1]; Conc 10 uM, set AI): −8% | Lifespan ([1]; Conc 10 uM, set AI): 18.81 days | % LS change ([1]; Conc 100 uM, set AI): 24% | Lifespan ([1]; Conc 100 uM, set AI): 25.45 days | % LS change ([1]; conc 10, set Aib): 15% | Lifespan ([1]; conc 10, set Aib): 25.98 days | % LS change ([1]; conc 100, set Aib): 22% | Lifespan ([1]; conc 100, set Aib): 27.47 days | increase in mitochondrial ROS [2]: significantly prevented the increase in mitochondrial ROS; also recorded: prevent mitochondrial ROS increase | accumulation of SCMAS in the cortex (Cln7Aex2 mice; [7]): prevented the accumulation | accumulation of lipofuscin in the cortex (Cln7Aex2 mice; [7]): prevented the accumulation | accumulation of reactive astroglia in the cortex (Cln7Aex2 mice; [7]): prevented the accumulation | hindlimb paralysis (Cln7Aex2 mice; Cln7Aex2 mice, FIG. 15D): prevented | prevention of neuronal apoptosis caused by MG132 [3]: ~45% | NADPH/NADP ratio (primary neurons): restore NADPH/NADP ratio | prevention of apoptotic neuronal death caused by β-amyloid [4]: ~60% | loss of perinuclear mitochondria [5]: rectified the loss of perinuclear mitochondria | rate of glycolysis (glycolytic flux) [6]: reduce the excessive glycolysis to normal levels
